From the NIST ThermoML archive (doi:10.1021/je400184t)

Assay: excess molar enthalpy (molar enthalpy of mixing); xn = mol fraction of the nth substance listed
Conditions: 298.15 K, 101 kPa, Liquid, Calvet calorimetry

Cc1ccccc1 [toluene] + CCCCCCC
Conditions	excess molar enthalpy [kcal/mol]
x2 = 0.00901	0.0055
x2 = 0.02172	0.0136
x2 = 0.04198	0.0253
x2 = 0.06142	0.0359
x2 = 0.08009	0.0457
x2 = 0.09803	0.054
x2 = 0.1153	0.0621
x2 = 0.1319	0.0691
x2 = 0.1479	0.0758
x2 = 0.1633	0.0815
x2 = 0.1782	0.087
x2 = 0.1925	0.0918
x2 = 0.2064	0.09608
x2 = 0.2198	0.0999
x2 = 0.2327	0.1035
x2 = 0.2452	0.1071
x2 = 0.2574	0.1102
x2 = 0.2691	0.113
x2 = 0.2805	0.115
x2 = 0.2915	0.118
x2 = 0.3022	0.1197
x2 = 0.3125	0.1214
x2 = 0.3226	0.1233
x2 = 0.3324	0.1248
x2 = 0.3419	0.126
x2 = 0.3511	0.1272
x2 = 0.3601	0.1281
x2 = 0.3688	0.1291
x2 = 0.3773	0.13
x2 = 0.3856	0.1307
x2 = 0.3883	0.131
x2 = 0.3909	0.131
x2 = 0.3935	0.1312
x2 = 0.3961	0.1315
x2 = 0.3987	0.1317
x2 = 0.4012	0.1317
x2 = 0.4038	0.1319
x2 = 0.4063	0.1319
x2 = 0.4088	0.1322
x2 = 0.4112	0.1324
x2 = 0.4137	0.1324
x2 = 0.4161	0.1324
x2 = 0.4185	0.1326
x2 = 0.4209	0.1326
x2 = 0.4232	0.1329
x2 = 0.4256	0.1329
x2 = 0.4279	0.1329
x2 = 0.4302	0.1331
x2 = 0.4325	0.1331
x2 = 0.4348	0.1331
x2 = 0.4382	0.1331
x2 = 0.4415	0.1334
x2 = 0.4449	0.1334
x2 = 0.4481	0.1334
x2 = 0.4514	0.1334
x2 = 0.4546	0.1334
x2 = 0.4578	0.1334
x2 = 0.4609	0.1334
x2 = 0.464	0.1334
x2 = 0.4671	0.1334
x2 = 0.4701	0.1331
x2 = 0.4731	0.1331
x2 = 0.476	0.1331
x2 = 0.479	0.1331
x2 = 0.4819	0.1329
x2 = 0.4847	0.1329
x2 = 0.4875	0.1329
x2 = 0.4903	0.1326
x2 = 0.4931	0.1326
x2 = 0.4959	0.1324
x2 = 0.4995	0.1322
x2 = 0.503	0.1322
x2 = 0.5066	0.1319
x2 = 0.51	0.1319
x2 = 0.5134	0.1317
x2 = 0.5168	0.1315
x2 = 0.5202	0.1312
x2 = 0.5234	0.131
x2 = 0.5267	0.1307
x2 = 0.5299	0.1305
x2 = 0.533	0.1303
x2 = 0.5361	0.13
x2 = 0.5392	0.1298
x2 = 0.5422	0.1295
x2 = 0.5452	0.1293
x2 = 0.5482	0.1291
x2 = 0.5511	0.1288
x2 = 0.5539	0.1286
x2 = 0.5568	0.1283
x2 = 0.5589	0.1281
x2 = 0.5609	0.1279
x2 = 0.563	0.1276
x2 = 0.565	0.1274
x2 = 0.5671	0.1272
x2 = 0.5691	0.1269
x2 = 0.571	0.1267
x2 = 0.573	0.1264
x2 = 0.5749	0.1262
x2 = 0.5769	0.126
x2 = 0.5788	0.126
x2 = 0.5807	0.1257
x2 = 0.5826	0.1255
x2 = 0.5844	0.1252
x2 = 0.5863	0.125
x2 = 0.5881	0.1248
x2 = 0.5899	0.1245
x2 = 0.5917	0.1243
x2 = 0.5935	0.124
x2 = 0.5952	0.1238
x2 = 0.597	0.1236
x2 = 0.5987	0.1233
x2 = 0.6004	0.1231
x2 = 0.6021	0.1228
x2 = 0.6038	0.1226
x2 = 0.6055	0.1224
x2 = 0.6071	0.1221
x2 = 0.6088	0.1219
x2 = 0.6148	0.1212
x2 = 0.6209	0.12
x2 = 0.6271	0.119
x2 = 0.6335	0.118
x2 = 0.64	0.117
x2 = 0.6466	0.116
x2 = 0.6534	0.114
x2 = 0.6603	0.113
x2 = 0.6673	0.112
x2 = 0.6745	0.1102
x2 = 0.6819	0.1085
x2 = 0.6894	0.1068
x2 = 0.6971	0.1052
x2 = 0.705	0.1035
x2 = 0.713	0.1013
x2 = 0.7212	0.09943
x2 = 0.7297	0.09751
x2 = 0.7383	0.0951
x2 = 0.7471	0.0927
x2 = 0.7562	0.0903
x2 = 0.7623	0.0887
x2 = 0.7685	0.087
x2 = 0.7748	0.0851
x2 = 0.7812	0.0832
x2 = 0.7877	0.0813
x2 = 0.7943	0.0789
x2 = 0.801	0.077
x2 = 0.8079	0.0746
x2 = 0.8148	0.0724
x2 = 0.8219	0.0703
x2 = 0.8291	0.0679
x2 = 0.8365	0.0655
x2 = 0.8439	0.0629
x2 = 0.8515	0.0602
x2 = 0.8592	0.0574
x2 = 0.8671	0.0545
x2 = 0.8752	0.0516
x2 = 0.8833	0.0485
x2 = 0.8917	0.0452
x2 = 0.9002	0.0418
x2 = 0.9088	0.0385
x2 = 0.9176	0.0351
x2 = 0.9266	0.0315
x2 = 0.9358	0.0277
x2 = 0.9434	0.0246
x2 = 0.9511	0.0215
x2 = 0.9589	0.0184
x2 = 0.9668	0.0151
x2 = 0.9749	0.0115
x2 = 0.9831	0.00789
x2 = 0.9915	0.00382
